According to US9770026B2, “Substituted pyrimidine compound and uses thereof” (Shenyang Sinochem Agrochemicals R&D Co., Ltd., priority 2012, dated 2017):

Columns and labels:
Diamond back moth = assay: insecticidal activity against diamond back moth, airbrush spray; assay type: in vivo; conditions: for control (test results against diamond back moth): 600 ppm, mortality after 72 hrs
Summary of the method: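 Airbrush leaf-disc spray test: both faces of 2 cm cabbage discs received 0.5 ml of test solution at 0.7 kg/cm^2. Solutions were made in acetone:methanol (1:1) and brought to concentration with 0.1% Tween 80 in water. Ten second-instar larvae per disc, triplicates, were held at 25° C and 60˜70% R.H., with mortality recorded at 72 hrs.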

armyworm = assay: bioactivity test against armyworm, airbrush spray; assay type: in vivo; conditions: for control (test results against armyworm): mortality after 72 h
[1] = tested on: Green peach aphids (Myzus Persicae Sulzer); assay: bioactivity test against green peach aphid, airbrush foliar spray; assay type: in vivo; conditions: for control (test results against green peach aphid): death rate after 48 hrs
Summary of the method: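 Death rate was scored at 48 hrs, held at 25±1 C and 60±5% RH, following airbrush foliar spray (0.5 mL, 10 psi) onto cabbage leaf discs bearing about 15-30 aphids. Test solutions: compound dissolved in 1:1 acetone:methanol, brought to concentration with 0.1% tween 80 water.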

carmine spider mite = assay: bioactivity test against carmine spider mite, airbrush spray; assay type: in vivo; conditions: for control against carmine spider mite: mortality after 72 hrs
Summary of the method: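 Broadbean seedlings infested with adult mites were sprayed with compound (acetone/methanol stock diluted in 0.1% Tween 80 water) by airbrush at 0.7 kg/cm^2, 0.5 ml. Three replicates were run. Mortality was scored after 72 hrs.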

corn rust = assay: protectant activity in vivo against corn rust; conditions: for protectant activity against corn rust in vivo: 400 ppm
wheat powdery mildew = assay: protectant activity in vivo against wheat powdery mildew; conditions: for protectant activity against wheat powdery mildew in vivo: 400 ppm
cucumber downy mildew = assay: protectant activity in vivo against cucumber downy mildew

Question: For `Cc1ncnc(NCCc2ccc(Oc3ccccc3)nc2)c1Cl` [III-1], which “control (test results against diamond back moth)” value (Diamond back moth) is on record?
Answer: The value was 100%.

Question: And the “control (test results against armyworm)” value (armyworm; 600 ppm)?
Answer: The value was 100%.

Question: And the “control (test results against green peach aphid)” value ([1]; 600 ppm)?
Answer: Its value is 100%.

Question: And the “control against carmine spider mite” value (carmine spider mite; 600 ppm)?
Answer: The value was 100%.

Question: What about the “protectant activity against corn rust in vivo” value (corn rust) of the same compound?
Answer: The value was 100%.

Question: And the “control effect against wheat powdery mildew (%)” value (wheat powdery mildew; 6.25 mg/L, protectant activity)?
Answer: Its value is 98%.

Question: And the “control effect against wheat powdery mildew (%)” value (wheat powdery mildew; 25 mg/L, protectant activity)?
Answer: Its value is 98%.

Question: What about the “control effect against wheat powdery mildew (%)” value (wheat powdery mildew; 100 mg/L, protectant activity) of the same compound?
Answer: The value was 98%.

Question: What about the “control effect against wheat powdery mildew (%)” value (wheat powdery mildew; 400 mg/L, protectant activity) of the same compound?
Answer: Its value is 100%.

Question: And the “protectant activity against wheat powdery mildew in vivo” value (wheat powdery mildew)?
Answer: Its value is 100%.

Question: And the “control effect against cucumber downy mildew (%)” value (cucumber downy mildew; 12.5 mg/L, protectant activity)?
Answer: The value was 100%.

Question: What about the “control effect against cucumber downy mildew (%)” value (cucumber downy mildew; 25 mg/L, protectant activity) of the same compound?
Answer: Its value is 100%.

Question: What about the “control effect against cucumber downy mildew (%)” value (cucumber downy mildew; 50 mg/L, protectant activity) of the same compound?
Answer: Its value is 100%.

Question: And the “control effect against cucumber downy mildew (%)” value (cucumber downy mildew; 100 mg/L, protectant activity)?
Answer: The value was 100%.

Question: What about the “control effect against cucumber downy mildew (%)” value (cucumber downy mildew; 400 mg/L, protectant activity) of the same compound?
Answer: The value was 100%.

Question: What about the “protectant activity against cucumber downy mildew in vivo” value (cucumber downy mildew; 12.5 ppm) of the same compound?
Answer: Its value is 100%.

Question: What about the “protectant activity against cucumber downy mildew in vivo” value (cucumber downy mildew; 25 ppm) of the same compound?
Answer: The value was 100%.

Question: What about the “protectant activity against cucumber downy mildew in vivo” value (cucumber downy mildew; 50 ppm) of the same compound?
Answer: Its value is 100%.

Question: And the “protectant activity against cucumber downy mildew in vivo” value (cucumber downy mildew; 100 ppm)?
Answer: The value was 100%.

Question: And the “protectant activity against cucumber downy mildew in vivo” value (cucumber downy mildew; 400 ppm)?
Answer: The value was 100%.

Question: What does the source list for `CCc1ncnc(NCCc2ccc(Oc3ccc(OC)cc3)nc2)c1Cl` [III-199]?
Answer: control (test results against diamond back moth) (Diamond back moth): 100%; Insecticidal activity against armyworm (%) (armyworm; 10 mg/L): 64%; Insecticidal activity against armyworm (%) (armyworm; 100 mg/L): 100%; Insecticidal activity against armyworm (%) (armyworm; 600 mg/L): 100%; control (test results against armyworm) (armyworm; 100 ppm): 100%; control (test results against armyworm) (armyworm; 600 ppm): 100%; control (test results against green peach aphid) ([1]; 100 ppm): 100%; control (test results against green peach aphid) ([1]; 600 ppm): 100%; Insecticidal activity against carmine spider mite (% ) (carmine spider mite; 10 mg/L, contrastive test): 87%; Insecticidal activity against carmine spider mite (% ) (carmine spider mite; 100 mg/L, contrastive test): 100%; Insecticidal activity against carmine spider mite (% ) (carmine spider mite; 600 mg/L, contrastive test): 100%; control against carmine spider mite (carmine spider mite; 100 ppm): 100%; control against carmine spider mite (carmine spider mite; 600 ppm): 100%; protectant activity against corn rust in vivo (corn rust): 100%; protectant activity against wheat powdery mildew in vivo (wheat powdery mildew): 100%; protectant activity against cucumber downy mildew in vivo (cucumber downy mildew; 100 ppm): 100%; protectant activity against cucumber downy mildew in vivo (cucumber downy mildew; 400 ppm): 100%

Question: For `FC(F)(F)c1cnc(Oc2ccc(CCNc3ncnc(Cl)c3Cl)cc2)c(Cl)c1` [CK72, reference compound], which pest or weed control at 600 µg/mL (Diamond back moth; 72 h, 600 mg/L) is on record?
Answer: The pest or weed control at 600 µg/mL was 0%.

Question: What about the pest or weed control at 600 µg/mL (armyworm; 72 h, 600 mg/L, read-out: Insecticidal activity against armyworm (%)) of the same compound?
Answer: The pest or weed control at 600 µg/mL was 71%.

Question: And the pest or weed control at 600 µg/mL ([1]; Myzus persicae, foliar, 48 h, 600 mg/L, contrastive test, read-out: Insecticidal activity against peach aphid (%))?
Answer: Its pest or weed control at 600 µg/mL is 55%.

Question: What about the pest or weed control at 600 µg/mL (carmine spider mite; Tetranychus cinnabarinus, 72 h, 600 mg/L, contrastive test, read-out: Insecticidal activity against carmine spider mite (% )) of the same compound?
Answer: The pest or weed control at 600 µg/mL was 13%.

Question: And the pest or weed control at 6.25 µg/mL (corn rust; Zea mays, 168 h, read-out: control effect against corn rust (%), 6.25 mg/L, protectant activity)?
Answer: The pest or weed control at 6.25 µg/mL was 0%.

Question: And the pest or weed control at 25 µg/mL (corn rust; Zea mays, 168 h, read-out: control effect against corn rust (%), 25 mg/L, protectant activity)?
Answer: The pest or weed control at 25 µg/mL was 20%.

Question: What about the pest or weed control at 100 µg/mL (corn rust; Zea mays, 168 h, read-out: control effect against corn rust (%), 100 mg/L, protectant activity) of the same compound?
Answer: Its pest or weed control at 100 µg/mL is 80%.

Question: And the pest or weed control at 400 µg/mL (corn rust; Zea mays, 168 h, read-out: control effect against corn rust (%), 400 mg/L, protectant activity)?
Answer: Its pest or weed control at 400 µg/mL is 100%.

Question: What about the pest or weed control at 6.25 µg/mL (wheat powdery mildew; Triticum aestivum, 168 h, read-out: control effect against wheat powdery mildew (%), 6.25 mg/L, protectant activity) of the same compound?
Answer: Its pest or weed control at 6.25 µg/mL is 50%.

Question: What about the pest or weed control at 25 µg/mL (wheat powdery mildew; Triticum aestivum, 168 h, read-out: control effect against wheat powdery mildew (%), 25 mg/L, protectant activity) of the same compound?
Answer: Its pest or weed control at 25 µg/mL is 60%.

Question: And the pest or weed control at 100 µg/mL (wheat powdery mildew; Triticum aestivum, 168 h, read-out: control effect against wheat powdery mildew (%), 100 mg/L, protectant activity)?
Answer: The pest or weed control at 100 µg/mL was 70%.

Question: What about the pest or weed control at 400 µg/mL (wheat powdery mildew; Triticum aestivum, 168 h, read-out: control effect against wheat powdery mildew (%), 400 mg/L, protectant activity) of the same compound?
Answer: Its pest or weed control at 400 µg/mL is 100%.

Question: And the pest or weed control at 25 µg/mL (cucumber downy mildew; Cucumis sativus, 168 h, read-out: control effect against cucumber downy mildew (%), 25 mg/L, protectant activity)?
Answer: The pest or weed control at 25 µg/mL was 20%.

Question: What about the pest or weed control at 50 µg/mL (cucumber downy mildew; Cucumis sativus, 168 h, read-out: control effect against cucumber downy mildew (%), 50 mg/L, protectant activity) of the same compound?
Answer: The pest or weed control at 50 µg/mL was 40%.

Question: And the pest or weed control at 100 µg/mL (cucumber downy mildew; Cucumis sativus, 168 h, read-out: control effect against cucumber downy mildew (%), 100 mg/L, protectant activity)?
Answer: Its pest or weed control at 100 µg/mL is 100%.

Question: And the pest or weed control at 400 µg/mL (cucumber downy mildew; Cucumis sativus, 168 h, read-out: control effect against cucumber downy mildew (%), 400 mg/L, protectant activity)?
Answer: Its pest or weed control at 400 µg/mL is 100%.
